Measured values published in article PMC8512560, “Design, Synthesis, and Antipoliferative Activities of Novel Substituted Imidazole-Thione Linked Benzotriazole Derivatives” (Molecules, 2021).
Where “and” joins values, the source holds several entries; their conditions need not be identical. Identical values can stand only once.

Legend:
HL-60 cells = assay: Annexin V/PI apoptotic assay by flow cytometry; type: cell-based, human; details: BI9 1 µM, CA-4 concentration not given, control 1.6%
Description: Apoptotic cell death was detected by flow cytometry using Annexin V and propidium iodide (PI). HL-60 Cells were seeded in 6 well plated at density of 1 × 10^5 cells/mL and treated with vehicle (0.1% (v/v) EtOH), positive control (CA-4) or compound BI9 (1 µM) for 48 and 72 h. Cells were then harvested and prepared for flow cytometric analysis. Cells were washed in 1X binding buffer ([…] binding buffer: 0.1M HEPES, pH 7.4; 1.4 M NaCl; 25 mM CaCl2 diluted in dH2O) and incubated in the dark for 30 min on ice in Annexin V-containing binding buffer [1:100]. Cells were then washed once in binding buffer and then re-suspended in PI-containing binding buffer [1:1000]. Samples were analysed immediately using the BD accuri flow cytometer and prism software for analysis the data. Four populations are produced during the assay Annexin V and PI negative (Q4, healthy cells), Annexin V positive and PI negative (Q3, early apoptosis), Annexin V and PI positive (Q2, late apoptosis) and Annexin V negative and PI positive (Q1, necrosis).

bovine brain tubulin = assay: Tubulin polymerization assay (turbidimetric, kit BK006); type: biochemical; details: read-out: Anti-Tubulin Activity IC50 ± SD (inhibition of tubulin polymerization)
Description: The assembly of purified bovine tubulin was monitored using a kit, BK006, purchased from Cytoskeleton Inc., (Denver, CO, USA). The assay was carried out in accordance with the manufacturer’s instructions using the standard assay conditions. Briefly, purified ([…]) in a buffer consisting of 80 mM PIPES (pH 6.9), 0.5 mM EGTA, 2 mM MgCl2, 1 mM GTP and 10% glycerol was incubated at 37 °C in the presence of either vehicle (2% (v/v) ddH2O), CA-4, benzotriazole compounds. Light was scattered proportionally to the concentration of polymerized microtubules in the assay. Therefore, the tubulin assembly was monitored turbidimetrically at 340 nm in a Spectramax 340 PC spectrophotometer (Molecular Devices, Sunnyvale, CA, USA). The concentration that inhibits tubulin polymerization by 50% (IC50) was determined using area under the curve (AUC). The AUC of the untreated controls were considered as 100% polymerization. The IC50 value for each compound was computed using GraphPad Prism Software.

BAX = assay: Western blot of BAX expression in HL-60 cells; type: cell-based, human; details: HL-60, 0.5 and 1 µM, compared to the untreated group
Description: HL-60 cells were seeded at a density of 1 × 10^5 cells/flask in T25 flasks. […] HL-60 cells were harvested in RIPA buffer supplemented with protease inhibitors (Roche Diagnostics), phosphatase inhibitor cocktail 2 (Sigma-Aldrich), and phosphatase inhibitor cocktail 3 (Sigma-Aldrich). Equal quantities of protein (as determined by a BCA assay) were resolved by SDS-PAGE (12%) followed by transfer to PVDF membranes. Membranes were blocked in 5% bovine serum albumin/TBST for 1 h. Membranes were incubated in the relevant primary antibodies at 4 °C overnight, washed with TBST, and incubated in horseradish peroxidase conjugated secondary antibody for 1 h at rt and washed again. Western blot analysis was performed as described above using antibodies directed against BAX [1:1000] (Cell Signaling Technology), PARP [1:500] (Cell Signaling Technology) and Bcl-2 [1:500] (Cell Signaling Technology) followed by incubation with a horseradish peroxidase-conjugated anti-mouse antibody [1:2000] (Promega, Madison, WI, USA). All blots were probed with β-actin antibody [1:5000] (Sigma) to confirm equal loading. Proteins were detected using enhanced chemiluminescent Western blot detection (Clarity Western ECL substrate) (Bio Rad) on the ChemiDoc MP System (Bio Rad). Experiments were performed on three independent occasions.

[1] = test system: colchicine binding site of tubulin; assay: Colchicine site competitive binding assay ([3H]colchicine); details: tubulin and colchicine at 1 and 5 µM
Description: The affinity of Benzotriazole compounds to colchicine binding site was determined using a Colchicine Site Competitive Assay kit CytoDYNAMIX Screen15 (Cytoskeleton, Inc., Denver, CO, USA) using the standard protocol of the manufacturer to determine Ki values (μM). Biotin-labelled tubulin ([…]) and the test compounds (positive control colchicine, negative control vinblastine, G-1, fluorescent G-1, or 2-ME) in a 96-well plate (final volume: 100 μL). After incubating for 2 h at 37 °C with gentle shaking, streptavidin-labelled yttrium SPA beads (80 μg in 20 μL reaction buffer, PerkinElmer, Waltham, MA) were added to each well and incubated for 30 min at 4 °C. The plates were then read on a scintillation counter (Packard Instrument, Topcount Microplate Reader) and the percentage of inhibition was calculated.

[2] = test system: MCF-7, HL-60 and HCT-116 cancer cell lines; assay: MTT viability assay, values pooled over the cancer cell lines; type: cell-based, human; details: Homo sapiens, MCF-7, HL-60 and HCT-116; MTT; read-out: IC50 values range over the three cancer cell lines
Description: (§1) All the human tumour cell lines MCF-7, HL-60, HCT-116, and HUVEC were cultured in Dulbecco’s Modified Eagle’s Medium (DMEM) with 10% fetal bovine serum, 2 mM L-glutamine and 100 µg/mL penicillin/streptomycin. Cells were maintained at 37 °C in 5% CO2 in a humidified incubator. All cells were sub-cultured three times/week by trypsinization using TrypLE Express (1X).
(§2) The Benzotriazole compounds were evaluated for antiproliferative effect using the MTT viability assay of various cancer cell lines (MCF-7, HCT-116 and HL-60) and the normal human umbilical vein endothelial cell line (HUVEC) to calculate the relative IC50 values for each compound. Cells were seeded in triplicate in 96-well plates at a density of 10 × 10^3 cells/mL in a total volume of 200 µL per well. 0.1% of DMSO was used as a vehicle control. After this time, they were treated with 2 µL test compound which had been pre-prepared as stock solutions in ethanol to furnish the concentration range of study, 10 nM to 100 µM, and re-incubated for a further 72 h. The culture medium was then removed, and the cells washed with 100 µL phosphate buffered saline (PBS) and 50 µL MTT added, to reach a final concentration of 1 mg/mL MTT added. Cells were incubated for 2 h in darkness at 37 °C. At this point solubilisation was begun through the addition of […] DMSO and the cells maintained at room temperature in darkness for 20 min to ensure thorough colour diffusion before reading the absorbance. Plates were incubated for 72 h at 37 °C + 5% CO2. The MTT (5 mg/mL in PBS) was added and incubated for another 4 h, and the optical density was detected with a microplate reader at 570 nm. Results were expressed as percentage viability relative to vehicle control (100%). Dose response curves were plotted and IC50 values (concentration of drug resulting in 50% reduction in cell survival) were obtained using the commercial software package Prism (GraphPad Software, Inc., La Jolla, CA, USA). All the experiments were repeated in at least three independent experiments.

[3] = test system: HL-60 human leukemia cancer cell line; assay: MTT viability assay, HL-60; type: cell-based; details: Homo sapiens, HL-60, 72 h, mean ± SD of three independent experiments, read-out: Antiproliferative Activities IC50, HL-60
Description: as §1, §2

`S=c1[nH]c(-n2nnc3ccccc32)cn1-c1ccc(Cl)cc1Cl` [BI9, 4-(1H-Benzo[d][1,2,3]Triazol-1-yl)-1-(2,4-Dichlorophenyl)-1H-Imidazole-2(3H)-Thione] was tested, and the “Total fraction of early and late apoptotic cells (Annexin V positive)” value (HL-60 cells; 48 h) was 21.5%, the “Average fraction of Annexin V-staining positive cells (total apoptotic cells)” value (HL-60 cells; 72 h) was 19.2% and the IC50 (bovine brain tubulin) was 0.52 ± 0.02 µM. For the same compound, the “Expression level of pro-apoptotic Bax protein” value (BAX) was “significantly up-regulated”, the “Colchicine Binding % ± SD (inhibition of [3H]colchicine binding), 1 µM Drug” value ([1]; 1 µM drug) was 49% and 49.38 ± 2% and the “Colchicine Binding % ± SD (inhibition of [3H]colchicine binding), 5 µM Drug” value ([1]; 5 µM drug) was 66% and 66.57 ± 2%. For the same compound, the IC50 [2] was 0.4 to 3.3 µM and the IC50 [3] was 0.4 ± 0.03 µM.
